Experimental data taken from patent US6645938B2, “Protection against ischemia and reperfusion injury” (ZymoGenetics, Inc., priority 2000, dated 2003).

Columns and labels:
mouse vas deferens = experiment: Mouse vas deferens (m.v.d.) contractility assay; settings: 6000 nM glibenclamide with 1000 nM compound-D
Protocol: Glibenclamide, a KATP channel blocker, blocked the inhibition of contraction of mouse vas deferens induced by compound-D SEQ ID NO:1. With reference to FIG. 8, the effect of administration of 1000 nM compound-D SEQ ID NO:1 alone (open bar) versus 1000 nM compound-D SEQ ID NO:1 with 6000 nM glibenclamide (hatched bar) on contractility of mouse vas deferens (m.v.d.) (n=6) is shown. Glibenclamide restored m.v.d. contractions which compound-D SEQ ID NO:1 had suppressed. […] (n=2).

[1] = system: isolated perfused rat heart; experiment: Isolated perfused rat heart (Langendorff), 20 min global ischemia and 120 min reperfusion after 24 h pretreatment; assay type: in vivo
Protocol: Compound-D SEQ ID NO:1, at a dose of 2 mg/kg and solubilized as described above, was administered by tail vein injection into rats weighing between about 350-400 g (number of animals (n)=6). Control rats (n=6) were injected in the same manner with an equal volume of 0.9% NaCl. After 24 h, the hearts from both treated and control animals were excised and perfused in a modified Langendorff perfusion apparatus at 37° C. using oxygenated Krebs-Henseleit buffer as the perfusate, as known to one skilled in the art. Coronary perfusion pressure was maintained at […] by regulating coronary flow. All hearts were paced at […] (300 beats per minute, bpm) except during ischemia. A saline-filled balloon was inserted in the left ventricle to measure developed pressure (DP) and end-diastolic pressure (EDP) in mm Hg. After 15 min equilibration, both groups were subjected to 20 min zero-flow global ischemia, and then were reperfused for 120 min.
Left ventricles were isolated and divided into three segments along their short axis, stained with triphenyltetrazolium chloride, and stored in formalin. Infarct size was measured on digitized images and expressed as a percentage of myocardium. Data were expressed as mean plus or minus standard error of the mean (±SEM) and were analyzed using a paired Student's t-Test. Confidence limits were established at 95%. […]

Compound: COc1ccc(Cl)cc1C(=O)NCCc1ccc(S(=O)(=O)NC(=O)NC2CCCCC2)cc1 [Glibenclamide]
- effect on inhibition of contraction induced by compound-D (mouse vas deferens): blocked

Compound: O=C1CC[C@@]2(O)[C@H]3Cc4ccc(O)c5c4[C@@]2(CCN3CC2CC2)[C@H]1O5 [naltrexone]
- effect of naltrexone on the cardioprotective effects of compound-D ([1]; FIG. 7, naltrexone 3 mg/kg combined with compound-D 2.0 mg/kg, 24 h prior to ischemia): did not block
- infarct size ([1]; FIG. 7 naltrexone study, pretreated 24 h prior to ischemia, compound-D 2.0 mg/kg, naltrexone 3 mg/kg, control about 27%): about 14.5%
